# From article PMC10739329, “Correlation of bioactive marker compounds of an orally applied Morus alba root bark extract with toxicity and efficacy in BALB/c mice” (Frontiers in Pharmacology, 2023)
# Where “and” joins values, the source holds several entries; their conditions need not be identical. Equal entries are not always repeated. Where two headings read alike, the source gives them in different places.
# Experiments:
# [1] = in vivo; cited from earlier work
# [2] = UPLC-ESI-MS quantitation of sanggenons C and D in serum and tissue samples, acute toxicity study; type: in vivo, BALB/c mice; conditions: for serum concentration: one (efficacy study) and three (acute toxicity study) hours after the last oral MA60 administration; for concentration at 3 h: BALB/c, mouse, serum, oral
# [3] = MS/MS search for metabolites of sanggenons C and D in serum samples; type: in vivo, BALB/c mice
# Procedure: In the present study, concentration of bioactive sanggenons C and D was determined in serum and tissue samples and correlated with the administered the doses of MA60. […] Already during dose finding and acute toxicity studies, a high variation in serum concentrations of the selected marker compounds was detected within all three dose groups (30, 100, and 300 mg/kg). No dose dependency could be observed regarding the serum concentrations. This might be due to i) inhomogeneities in the CMC suspension of the MA60 extract, ii) the inter-individual differences in the resorption of sanggenons, or iii) the formation of sanggenon metabolites: • (i) For oral gavage administration, MA60 was suspended in 0.3% carboxymethyl cellulose (CMC) as vehicle. This is based on literature data, where even a higher dose of up to 400 mg/kg of a 70% EtOH extract of M. alba root bark ([Lim et al., 2013]) was previously administered to mice per gavage feeding. […] In the present study, an MS/MS analysis was conducted to also search for metabolites of the selected marker compounds sanggenon C and sanggenon D. The search included (di)glucuronides and hydroxylated metabolites as well as further conjugates such as sulfated metabolites.
# [4] = MA60 30 mg/kg oral, samples 26-30 in order, 3 h after last treatment
# [5] = MA60 100 mg/kg oral, samples 31-35 in order, 3 h after last treatment
# [6] = MA60 300 mg/kg oral, samples 36-40 in order, 3 h after last treatment
# [7] = MA60 100 mg/kg oral once daily for seven days, samples 68-71 in order, sacrificed 24 h after last application
compound,measurement,setting,value
C=C(C)[C@H](CC=C(C)C)Cc1c(O)cc(OC)c(C(=O)/C=C/c2ccc(O)cc2O)c1O [kuraridin],metabolites found in rat serum,[1],mono- and di-glucuronides as well as hydroxylated derivatives
sanggenon D,"quantified amount of sanggenon D liver, individual samples",[2]; [4],n.f.
same,"quantified amount of sanggenon D lung, individual samples",[2]; [4],"n.f. (4×) and 1,005.12 ng/mL"
same,"quantified amount of sanggenon D liver, individual samples",[2]; [5],n.f. and 34.18 ng/mL and 26.97 ng/mL
same,"quantified amount of sanggenon D lung, individual samples",[2]; [5],"n.f. (2×) and 2,980.27 ng/mL and 343.27 ng/mL and 10,306.71 ng/mL"
same,"quantified amount of sanggenon D liver, individual samples",[2]; [6],70.13 ng/mL and 89.18 ng/mL and 979.27 ng/mL and 996.87 ng/mL and 447.53 ng/mL
same,"quantified amount of sanggenon D lung, individual samples",[2]; [6],n.f.
same,sanggenon D concentration in liver tissues,"[2]; high dose group (300 mg/kg), #38 and #39",~1 µg/mL
same,sanggenon D in liver samples,[2]; low dose group (MA60 30 mg/kg oral),not detected
same,serum concentration,[2],less than 1%
same,"quantified amount of sanggenon D liver, individual samples",[7],n.f.
same,"quantified amount of sanggenon D lung, individual samples",[7],n.f.
same,sanggenon D in liver,"MA60 100 mg/kg oral, after 24 h",could not be determined
same,sanggenon D in liver,"MA60 100 mg/kg oral, mice sacrificed after 1 h",high amount
same,"quantified amount of sanggenon D lung, individual samples","MA60 100 mg/kg oral, samples 64-67 in order, sacrificed 1 h after treatment",n.f.
same,"metabolites ((di)glucuronides, hydroxylated, sulfated conjugates) in serum samples",[3]; MS/MS analysis after oral MA60,neither the corresponding masses nor the phase-II-conjugates could be detected
CC(C)=CC[C@]12Oc3cc(O)c([C@H]4C=C(C)C[C@H](c5ccc(O)cc5O)[C@H]4C(=O)c4ccc(O)cc4O)c(O)c3C(=O)[C@@]1(O)Oc1cc(O)ccc12 [sanggenon C],concentration at 3 h,"[2]; 30 mg/kg, MA60 30 mg/kg oral once daily 7 days, 3 h after last treatment, read-out: amount of sanggenon C in serum (dose group)",< 9.1 ng/mL
same,concentration at 3 h,"[2]; 30 mg/kg, MA60 30 mg/kg oral, samples 26-30 in order, 3 h after last treatment, read-out: quantified amount of sanggenon C serum, individual samples",4.97 ng/mL
same,concentration at 3 h,"[2]; 100 mg/kg, MA60 100 mg/kg oral once daily 7 days, 3 h after last treatment, read-out: amount of sanggenon C in serum (dose group)",7.94 to 31.5 ng/mL
same,concentration at 3 h,"[2]; 300 mg/kg, MA60 300 mg/kg oral once daily 7 days, 3 h after last treatment, read-out: amount of sanggenon C in serum (dose group)",21.2 to 227 ng/mL
same,concentration at 3 h,"[2]; mice sacrificed 3 hours after the last application, read-out: average serum concentration of sanggenon C",< 2 ng/mL
same,"quantified amount of sanggenon C serum, individual samples",[2]; [4],n.f. (3×) and 9.10 ng/mL
same,"quantified amount of sanggenon C serum, individual samples",[2]; [5],7.94 ng/mL and 9.28 ng/mL and 31.53 ng/mL and 11.17 ng/mL and 13.02 ng/mL
same,"quantified amount of sanggenon C serum, individual samples",[2]; [6],25.74 ng/mL and 21.21 ng/mL and 227.26 ng/mL and 24.13 ng/mL and 103.00 ng/mL
same,serum concentration,[2],less than 1%
same,serum concentrations of sanggenon C (group),"MA60 100 mg/kg oral, after 24 h (#68-#71), below this value or not detectable",below 2.77 ng/mL
same,"metabolites ((di)glucuronides, hydroxylated, sulfated conjugates) in serum samples","[3]; mouse, in vivo, po",neither the corresponding masses nor the phase-II-conjugates could be detected
